US12162856B2, “β-catenin and B-cell lymphoma 9 (BCL9) inhibitors” (H. LEE MOFFITT CANCER CENTER AND RESEARCH INSTITUTE, INC., priority 2019, dated 2024)
Where a name gives a salt, the structure may show the parent alone. Read-outs that look alike come from different tables or passages of the source. Blank lines part the entries; values can stand above or below the compound they belong to.

Target: T1, β-catenin/BCL9 PPI (Homo sapiens, UniProt P35222)
T1 construct: Wild-type full-length β-catenin were cloned into a pET-28b vector; made in house; host or cells: Escherichia coli BL21 DE3 (β-catenin); BCL9 peptide chemically synthesized
T1 sequence (P35222 1-781): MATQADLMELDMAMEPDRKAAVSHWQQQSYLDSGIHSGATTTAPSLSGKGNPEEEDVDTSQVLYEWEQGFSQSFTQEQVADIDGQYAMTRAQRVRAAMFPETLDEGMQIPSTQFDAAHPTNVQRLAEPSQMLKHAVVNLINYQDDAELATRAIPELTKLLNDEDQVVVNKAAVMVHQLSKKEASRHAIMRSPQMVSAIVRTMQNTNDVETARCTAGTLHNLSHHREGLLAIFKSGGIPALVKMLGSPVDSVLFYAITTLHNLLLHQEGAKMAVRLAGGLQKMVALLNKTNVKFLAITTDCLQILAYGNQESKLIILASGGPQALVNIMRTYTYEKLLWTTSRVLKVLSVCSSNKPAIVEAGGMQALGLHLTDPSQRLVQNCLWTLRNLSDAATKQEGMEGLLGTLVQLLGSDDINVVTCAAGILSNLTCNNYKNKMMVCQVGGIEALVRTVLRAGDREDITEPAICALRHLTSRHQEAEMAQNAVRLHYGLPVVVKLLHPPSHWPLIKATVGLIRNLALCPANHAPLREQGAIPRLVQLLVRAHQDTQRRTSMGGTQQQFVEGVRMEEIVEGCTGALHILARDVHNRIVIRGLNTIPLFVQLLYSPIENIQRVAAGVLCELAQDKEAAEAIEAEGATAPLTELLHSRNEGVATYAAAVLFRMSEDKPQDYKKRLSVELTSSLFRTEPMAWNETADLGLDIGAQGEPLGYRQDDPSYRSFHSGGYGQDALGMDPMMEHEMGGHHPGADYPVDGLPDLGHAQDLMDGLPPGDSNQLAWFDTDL
Test: AlphaScreen competitive inhibition assay of the β-catenin/BCL9 PPI
Assay type: binding
Conditions: mean ± SD, triplicate, Ki derived from IC50 (Nikolovska-Coleska equation)
Description: Protein expression and purification. Wild-type full-length β-catenin were cloned into a pET-28b vector carrying a C-terminal 6×histidine (Novagen), and transformed into Escherichia coli BL21 DE3 (Novagen). Cells were cultured in LB medium with 30 μg/mL kanamycin until the OD600 was approximately 0.8, and then protein expression was induced with 400 μM of IPTG at 20° C. overnight. Cells were lysed by sonication. The proteins were purified by Ni-NTA affinity chromatography (30210, Qiagen) and dialyzed against a buffer containing 20 mM of Tris (pH 8.5), 100 mM NaCl, 10% glycerol, and 3 mM DTT. The purity of β-eaten in was greater than 95% as determined by SDS-PAGE gel analysis. Native non-denaturing gel electrophoresis was performed to confirm the homogeneity of the purified proteins. Thermal-shift assay was performed on an iCycler iQ Real Time Detection System (Bio-Rad) to monitor protein stability and detect protein aggregation. Protein unfolding was evaluated through measuring the S15 fluorescence changes of fluorescent dye Sypro Orange when interacting with wild-type or mutant β-catenin proteins. A temperature increment of […] was applied. CD spectra were measured on a J-815 spectropolarimeter (Jasco). All spectra were recorded at room temperature, and the baseline control containing all of the substances except protein. Sample were prepared at a concentration around 1-5 μM in a buffer of 10 mM potassium phosphate and 100 mM potassium fluoride at pH 7.0 to ensure that the transmission of light through the sample was not restricted. All proteins were stable and no aggregation was observed under storage or assay conditions. Proteins were aliquoted and stored at −80° C.
BCL9 peptide synthesis and purification. Human BCL9 (residues 350-375), and […] biotinylated human BCL9 (residues 350-375) were synthesized. All synthesized peptides were purified by HPLC with purity >95%. The structures were validated by LC/MS. The sequences are as follows (Ahx, 6-aminohexanoic acid).
AlphaScreen competitive inhibition assays. For the competitive inhibition assays of the β-catenin/BCL9 PPI, the negative control (equivalent to 0% inhibition) refers to 5.0 nM of biotinylated BCL9, 40 nM of His6-tagged β-catenin, and 10 μg/mL of donor and acceptor beads in a final volume of 25 μL assay buffer, but no tested inhibitor present. The positive control (equivalent to 100% inhibition) refers to 5.0 nM of biotinylated BCL9 and […] of donor and acceptor beads in a final volume of 25 μL assay buffer.
For the β-catenin/BCL9 assay, 5 nM of biotinylated BCL9 and 40 nM of His6-tagged β-catenin were incubated in assay buffer at 4° C. for 30 min. Different concentrations of the tested inhibitor were added and incubated in 20 μL assay buffer at 4° C. for another 1 h. All of the above assay plates were covered and gently mixed on an orbital shaker. The donor and acceptor beads were then added to the plates to a final concentration of 10 μg/mL in 25 μL assay buffer. The mixture was incubated for 1 h at 4° C. before detection. The IC50 value was determined by nonlinear least-square analysis of GraphPad Prism 5.0. The Ki values were derived from the IC50 values using a method reported by Nikolovska-Coleska et al (Nikolovska-Coleska, Z.; Wang, R.; Fang, X.; Pan, H.; Tomita, Y.; Li, P.; Roller, P. P.; Krajewski, K.; Saito, N. G.; Stuckey, J. A.; Wang, S. Development and optimization of a binding assay for the XIAP BIR3 domain using fluorescence polarization. Anal. Biochem. 2004, 332, 261-273.). The assays were conducted under the conditions required by Nikolovska-Coleska et al.'s equation for determining the Ki values. All of the experiments were performed in triplicate. The results were expressed as mean±standard deviation.

[1] = experiment 1, read-out: Ki (μM ± SD) experiment 1
[2] = experiment 2, read-out: Ki (μM ± SD) experiment 2
[3] = experiment 3, read-out: Ki (μM ± SD) experiment 3
[4] = experiment 4, read-out: Ki (μM ± SD) experiment 4

SMILES: NCCCC(=O)Nc1cc(F)cc(C(=O)N2CCN(C(=O)c3ccc(O[C@H]4CCNC4)c(C4CCCCC4)c3)CC2)c1 [Compound 1, (S)-4-Amino-N-(3-(4-(3-cyclohexyl-4-(pyrrolidin-3-yloxy)benzoyl)piperazine-1-carbonyl)-5-fluorophenyl) butanamide ditrifluoroacetate]
Ki [1]: 310 ± 48 µM | Ki [2]: 310 ± 23 µM

SMILES: NCCCCC(=O)Nc1cc(F)cc(C(=O)N2CCN(C(=O)c3ccc(O[C@H]4CCNC4)c(C4CCCCC4)c3)CC2)c1 [Compound 2, (S)-5-Amino-N-(3-(4-(3-cyclohexyl-4-(pyrrolidin-3-yloxy)benzoyl)piperazine-1-carbonyl)-5-fluorophenyl) pentanamide ditrifluoroacetate]
Ki [1]: 230 ± 33 µM | Ki [2]: 220 ± 26 µM

SMILES: CC(C)(N)C(=O)Nc1cc(F)cc(C(=O)N2CCN(C(=O)c3ccc(O[C@H]4CCNC4)c(C4CCCCC4)c3)CC2)c1 [Compound 3, (S)-2-Amino-N-(3-(4-(3-cyclohexyl-4-(pyrrolidin-3-yloxy)benzoyl)piperazine-1-carbonyl)-5-fluorophenyl)-2-methylpropanamide ditrifluoroacetate]
Ki [1]: 310 ± 32 µM | Ki [2]: 550 ± 46 µM

SMILES: O=C(Nc1cc(F)cc(C(=O)N2CCN(C(=O)c3ccc(O[C@H]4CCNC4)c(C4CCCCC4)c3)CC2)c1)C1CCNCC1 [Compound 5, (S)—N-(3-(4-(3-cyclohexyl-4-(pyrrolidin-3-yloxy)benzoyl)piperazine-1-carbonyl)-5-fluorophenyl) piperidine-4-carboxamide ditrifluoroacetate]
Ki [1]: 157 ± 17 µM | Ki [2]: 160 ± 22 µM

SMILES: CN(C(=O)C(C)(C)CN)c1cc(F)cc(C(=O)N2CCN(C(=O)c3ccc(O[C@H]4CCNC4)c(C4CCCCC4)c3)CC2)c1 [Compound 9, (S)-3-amino-N-(3-(4-(3-cyclohexyl-4-(pyrrolidin-3-yloxy)benzoyl)piperazine-1-carbonyl)-5-fluorophenyl)-N,2,2-trimethylpropanamide ditrifluoroacetate]
Ki [1]: > 90 µM | Ki [2]: > 90 µM

SMILES: CN(C(=O)C1CCNCC1)c1cc(F)cc(C(=O)N2CCN(C(=O)c3ccc(O[C@H]4CCNC4)c(C4CCCCC4)c3)CC2)c1 [Compound 10, (S)—N-(3-(4-(3-cyclohexyl-4-(pyrrolidin-3-yloxy)benzoyl)piperazine-1-carbonyl)-5-fluorophenyl)-N-methylpiperidine-4-carboxamide ditrifluoroacetate]
Ki [1]: 420 ± 50 µM | Ki [2]: 76 ± 8.3 µM

SMILES: CC[C@H]1CN(C(=O)c2cc(F)cc(NC(C)=O)c2)CCN1C(=O)c1ccc(O[C@H]2CCNC2)c(C2CCCCC2)c1 [Compound 14, N-(3-((S)-4-(3-Cyclohexyl-4-(((S)-pyrrolidin-3-yl)oxy)benzoyl)-3-ethylpiperazine-1-carbonyl)-5-fluorophenyl) acetamide trifluoroacetate]
Ki [3]: 790 ± 58 µM | Ki [4]: 780 ± 130 µM

SMILES: CC(=O)Nc1cc(F)cc(C(=O)N2CCN(C(=O)c3ccc(O[C@H]4CCNC4)c(C4CCCCC4)c3)[C@@H](C(C)C)C2)c1 [Compound 15, N-(3-((S)-4-(3-Cyclohexyl-4-(((S)-pyrrolidin-3-yl)oxy)benzoyl)-3-isopropylpiperazine-1-carbonyl)-5-fluorophenyl) acetamide trifluoroacetate]
Ki [3]: 280 ± 27 µM | Ki [4]: 290 ± 61 µM

Next, values leading:

Ki [1]: 780 ± 59 µM | Ki [2]: 310 ± 43 µM
SMILES: CC(C)(CN)C(=O)Nc1cc(F)cc(C(=O)N2CCN(C(=O)c3ccc(O[C@H]4CCNC4)c(C4CCCCC4)c3)CC2)c1 [Compound 4, (S)-3-Amino-N-(3-(4-(3-cyclohexyl-4-(pyrrolidin-3-yloxy)benzoyl)piperazine-1-carbonyl)-5-fluorophenyl)-2,2-dimethylpropanamide ditrifluoroacetate]

Ki [1]: 840 ± 64 µM | Ki [2]: 380 ± 44 µM
SMILES: CN(C(=O)CCCN)c1cc(F)cc(C(=O)N2CCN(C(=O)c3ccc(O[C@H]4CCNC4)c(C4CCCCC4)c3)CC2)c1 [Compound 6, (S)-4-amino-N-(3-(4-(3-cyclohexyl-4-(pyrrolidin-3-yloxy)benzoyl)piperazine-1-carbonyl)-5-fluorophenyl)-N-methylbutanamide ditrifluoroacetate]

Ki [1]: 730 ± 73 µM | Ki [2]: 240 ± 33 µM
SMILES: CN(C(=O)CCCCN)c1cc(F)cc(C(=O)N2CCN(C(=O)c3ccc(O[C@H]4CCNC4)c(C4CCCCC4)c3)CC2)c1 [Compound 7, (S)-5-amino-N-(3-(4-(3-cyclohexyl-4-(pyrrolidin-3-yloxy)benzoyl)piperazine-1-carbonyl)-5-fluorophenyl)-N-methylpentanamide ditrifluoroacetate]

Ki [1]: 32 ± 4 µM | Ki [2]: 71 ± 8.7 µM
SMILES: CN(C(=O)C(C)(C)N)c1cc(F)cc(C(=O)N2CCN(C(=O)c3ccc(O[C@H]4CCNC4)c(C4CCCCC4)c3)CC2)c1 [Compound 8, (S)-2-amino-N-(3-(4-(3-cyclohexyl-4-(pyrrolidin-3-yloxy)benzoyl)piperazine-1-carbonyl)-5-fluorophenyl)-N,2-dimethylpropanamide ditrifluoroacetate]

Ki [1]: 170 ± 23 µM | Ki [2]: 150 ± 18 µM
SMILES: CC(C)(CN)C(=O)Nc1cc(F)cc(C(=O)N2CCN(C(=O)c3ccc(O[C@H]4CCNC4)c(C4CCC(C(F)(F)F)CC4)c3)CC2)c1 (stereo partly drawn) [Compound 11, (S)-3-amino-N-(3-fluoro-5-(4-(4-(pyrrolidin-3-yloxy)-3-(4-(trifluoromethyl)cyclohexyl)benzoyl)piperazine-1-carbonyl)phenyl)-2,2-dimethylpropanamide ditrifluoroacetate]

Ki [3]: 61 ± 7.5 µM | Ki [4]: 37 ± 3.6 µM
SMILES: CC(=O)Nc1cc(F)cc(C(=O)N2CCN(C(=O)c3ccc(O[C@H]4CCNC4)c(C4CCCCC4)c3)CC2)c1 [Compound 12, (S)—N-(3-(4-(3-Cyclohexyl-4-(pyrrolidin-3-yloxy)benzoyl)piperazine-1-carbonyl)-5-fluorophenyl) acetamide trifluoroacetate]

Ki [3]: 330 ± 34 µM | Ki [4]: 100 ± 18 µM
SMILES: CC(=O)Nc1cc(F)cc(C(=O)N2CCN(C(=O)c3ccc(O[C@H]4CCNC4)c(C4CCCCC4)c3)[C@@H](C)C2)c1 [Compound 13, N-(3-((S)-4-(3-Cyclohexyl-4-(((S)-pyrrolidin-3-yl)oxy)benzoyl)-3-methylpiperazine-1-carbonyl)-5-fluorophenyl) acetamide trifluoroacetate]
